In paper PMC12648656, “Palladium(II) Complexes with Noncovalent Interactions with DNA: Solution Speciation Controlled by Solvent Identity, pH, and Concentration” (Inorganic Chemistry, 2025):

Key:
[1] = tested on: calf thymus-DNA (CT-DNA); experiment: Viscometry with CT-DNA; format: binding; conditions: compound/DNA ratios 0.0 to 1.0; 5 mM Tris, 100 mM NaCl, pH 7.40, 25.0 °C
Experimental: […] Then, the samples were incubated at 37 °C and with constant shaking at 300 rpm for 10 min and 1 h. After each incubation, the viscosity was measured at a constant temperature of 25.0 ± 0.2 °C in a vibrational viscometer. The relative viscosity was calculated by taking the mean values of three replicate measurements, and the values were represented by plotting the values of relative viscosity of CT-DNA (η/η0)^1/3 against 1/R.

[2] = target: T1, hen egg white lysozyme (HEWL) (Gallus gallus, UniProt P00698); parameters: method as in not given; conditions: reported under the same conditions; ref not given; cited from earlier work
T1 construct: a model protein, namely HEWL (hen egg white lysozyme), was also studied; from tissue; host or cells: hen egg white (from the protein's name)
T1 sequence (P00698 19-147): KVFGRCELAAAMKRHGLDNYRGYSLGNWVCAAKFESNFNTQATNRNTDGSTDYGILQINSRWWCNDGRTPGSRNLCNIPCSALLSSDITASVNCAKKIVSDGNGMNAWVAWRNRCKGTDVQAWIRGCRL

[3] = tested on: MCF7 human breast cancer cell line; parameters: method as in marks after cisplatin lost in b83 (probably 43, 44); conditions: MCF7, 72 h exposure; ref marks after cisplatin lost in b83 (probably 43, 44); cited from earlier work
[4] = tested on: pBR322 plasmid DNA; experiment: Agarose gel electrophoresis mobility shift; format: binding; conditions: r i 0.01 to 0.20, 24 h, 37 °C
Experimental: Complexes (2) and (3) were incubated at 37 °C with a concentration of 0.0625 μg/μL pBR322 plasmid DNA at different concentrations expressed as r i = complex:DNA (base pair) ratio. The r i used was from 0.01 to 0.20, in a total volume of 20 μL. After an incubation period of 24 h, the mobility of the complex-treated pBR322 samples was analyzed by gel electrophoresis at 70 V in Tris/acetate/EDTA buffer. A control of pBR322 was also incubated, and a 1 kb ladder aliquot was loaded into lane 1 of the gel. The gel was stained with an ethidium bromide aqueous solution, and DNA bands were visualized with a UV-transilluminator UVITEC Cambridge UVIDOC HD2 instrument. The studies were performed with 3% (v/v) DMSO as the final solution.

[5] = tested on: Colo 205 human colon cancer cell line; parameters: method as in marks after cisplatin lost in b83 (probably 43, 44); conditions: Colo 205, 72 h exposure; ref marks after cisplatin lost in b83 (probably 43, 44); cited from earlier work

SMILES: N.N.[Cl][Pt][Cl] [Cisplatin]
- effect on relative viscosity of CT-DNA [1]: relative viscosity of the solution decreases
- observed rate constant k obs [2]: 1.98 × 10^–4 s^–1
- IC50 [3]: 15 ± 0.01 µM
- effect on electrophoretic mobility of pBR322 (two forms, SC and OC) [4]: changes in the mobility of the pBR322 isoforms
- IC50 [5]: 23 ± 1 µM
